Holding throughout (format): functional
In assay [1] the target is Human immunodeficiency virus type 1 reverse transcriptase (Human immunodeficiency virus 1, UniProt Q72547). Nature of the assay: Equilibrium binding constant at the active site of HIV-1 reverse transcriptase.
Assay [2] deals with Human immunodeficiency virus type 1 reverse transcriptase (Human immunodeficiency virus 1) (UniProt Q72547). As to the kind of experiment: Rate of incorporation into a DNA primer directed by a DNA template at the active site of HIV-1 reverse transcriptase.
The target is the same in assay [3]. Nature of the assay: Efficiency of incorporation into a DNA primer directed by a DNA template at the active site of HIV-1 reverse transcriptase.

Each structure is given as a SMILES string.

Consider `Nc1nc(=O)n([C@@H]2CS[C@H](COP(=O)(O)OP(=O)(O)OP(=O)(O)O)O2)cc1F` [EMTRICITABINE 5'-TRIPHOSPHATE], for which binding in assay [1] was characterised by a dissociation constant (Kd) of 12 µM. In assay [2], this molecule gave a Kpol of 0.039 s⁻¹. Further, in assay [3], the Efficiency worked out at 0.0033 µM⁻¹ s⁻¹.
In the same order, the values of `Nc1ccn([C@@H]2CS[C@H](COP(=O)(O)OP(=O)(O)OP(=O)(O)O)O2)c(=O)n1` [LAMIVUDINE TRIPHOSPHATE] are 15 µM, 0.019 s⁻¹ and 0.0013 µM⁻¹ s⁻¹.
In the same order, the values of `Nc1ccn([C@@H]2C=C[C@H](COP(=O)(O)OP(=O)(O)OP(=O)(O)O)O2)c(=O)n1` are 18 µM, 0.16 s⁻¹ and 0.0086 µM⁻¹ s⁻¹.
For `Nc1nc(=O)n([C@H]2O[C@@H](COP(=O)(O)OP(=O)(O)OP(=O)(O)O)C=C2F)cc1F` the same measures were 64 µM, 0.15 s⁻¹ and 0.0023 µM⁻¹ s⁻¹.
In assay [1], `Nc1nc(=O)n([C@@H]2C=C[C@H](COP(=O)(O)OP(=O)(O)OP(=O)(O)O)O2)cc1F` showed a dissociation constant Kd of 31 µM. Besides, in assay [2], the Kpol came out at 0.95 s⁻¹. In addition, the Efficiency in assay [3] is 0.031 µM⁻¹ s⁻¹.

For the origin of these results see ChEMBL document CHEMBL1146837, “Effects of fluorine substitution of cytosine analogues on the binding affinity to HIV-1 reverse transcriptase” (Bioorg Med Chem Lett, 2004).
